Test in all cases: Human liver microsomes CYP450 cocktail inhibition assay
Common to all, as to type: in vitro ADME
In general terms: Microsomes from liver hold many membrane-bound enzymes, among them those of drug oxidation.

The target in assay [1] is T1, CYP1A2 (Homo sapiens, UniProt P05177).
T1 construct: Frozen human liver microsomes (HLM) were thawed at 37° C; from tissue; host or cells: human liver microsomes
T1 sequence (P05177 1-516): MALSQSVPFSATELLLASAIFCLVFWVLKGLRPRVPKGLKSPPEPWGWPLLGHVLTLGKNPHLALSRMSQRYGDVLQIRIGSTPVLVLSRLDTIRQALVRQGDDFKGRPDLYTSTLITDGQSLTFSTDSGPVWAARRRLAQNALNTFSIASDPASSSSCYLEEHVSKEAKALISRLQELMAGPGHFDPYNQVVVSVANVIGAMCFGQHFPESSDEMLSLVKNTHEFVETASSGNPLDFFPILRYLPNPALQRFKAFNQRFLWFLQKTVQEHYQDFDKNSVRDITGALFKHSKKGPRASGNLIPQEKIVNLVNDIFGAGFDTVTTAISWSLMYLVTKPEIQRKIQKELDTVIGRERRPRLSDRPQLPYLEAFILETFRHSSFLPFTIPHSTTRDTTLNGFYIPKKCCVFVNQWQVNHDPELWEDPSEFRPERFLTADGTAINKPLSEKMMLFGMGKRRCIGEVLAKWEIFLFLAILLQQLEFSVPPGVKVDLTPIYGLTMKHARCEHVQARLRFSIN
The settings on record: HLM 0.2 mg/ml, 10 mins; read-out: Calculated IC50, HLM 1A2. The source says:
(§1) Human Liver Microsomes CYP450 Cocktail Inhibition Assay
(§2) The cocktail DDI assay was used to evaluate test compound(s) for potential to cause drug-drug interactions via inhibition of clinically important P450 isoforms (CYP1A2, 2C8, 2C9, 2C19, 2D6, and 3A4) in early discovery. Discrimination of the inhibitory potential of the test compound towards each isoform was achieved by using a cocktail of specific probe substrates which are known to be selectively metabolized to defined metabolites by the isoforms under investigation. For example, dextromethorphan is known to be demethylated exclusively by the 2D6 isoform. Co-incubation of the probe substrates in human liver microsomes (HLM) with the test compound(s) at a range of inhibitor concentrations allows calculation of IC50 values for multiple CYP isoforms simultaneously and therefore offers a higher throughput compared to a traditional single probe assay.
(§3) Methods and Procedures: Final protein concentration in the incubation was 0.2 mg/ml and incubation time was 10 mins. The final total solvent in the incubation was 0.15% DMSO and 0.8% acetonitrile. The assay was automated on a Beckman Biomek FX automated liquid handler with multi-channel pipetting tools (8-channel and 96-channel), on deck reagent cooling capabilities and integrated automated Cytomat incubator (37° C.) with plate shaking facilities (Kendro).
(§4) Test compounds were supplied as 5 mM DMSO stock solutions. 0.1 M Phosphate buffer (pH7.4) was prepared in house using Na2HPO4·12H2O and KH2PO4.
(§5) Frozen human liver microsomes (HLM) were thawed at 37° C. while agitating regularly until the whole volume was thawed, then held on ice. Based on the protein concentration of the HLM batch, the suspension was further diluted in assay buffer and the probe substrate mixture (substrate for each CYP isoform) to yield the final protein concentration of 0.2 mg/mL.
(§6) Probe substrates were prepared separately in assay buffer (phenacetin, tolbutamide, S-mephenytoin, dextromethorphan) or water (amodiaquine, midazolam). These were combined (at the appropriate conc per substrate) with HLM and assay buffer to yield the final Enzyme/Substrate mix.
(§7) The final total solvent in the incubation was 0.15% DMSO and 0.8% acetonitrile. NADPH (5.27 mM) was prepared as a solution in assay buffer (Room Temp). The quenching solution containing deuterated analogues of each of the seven probe substrate metabolites was dissolved at an appropriate concentration in acetonitrile.
(§8) Assay procedure: Samples for incubation were prepared by combining appropriate volumes of Enzyme/Substrate mix (80 μl) and stock solutions of test or reference inhibitors (1 μl solutions added from a dilution series). Following a pre-incubation period (typically, 10 minutes), the reaction was initiated by the addition of NADPH solution (19 μl, 5.27 mM). The samples were incubated at 37° C. for 10 mins. The incubations were quenched by the addition of 1.6 volumes of chilled quenching solution. The incubations were then centrifuged for 10 minutes at 4000 rpm at 4° C. A defined volume of the supernatant (S/N) was transferred into a separate container and diluted with water (S/N: Water=60 μL/180 μL). Each sample was injected onto a UPLC/MS system using an LC/MS method selective for the simultaneous measurement of all seven probe substrate metabolites (and associated deuterated internal standards).
(§9) Calculations and Formulas: Percentage activity was calculated as % activity=(Ri/R)*100 • where Ri and R were the metabolite to internal standard peak area ratios in the presence and absence of TC, respectively. The percentage activity data were then plotted against log (TC concentration) and a curve was fitted to the data to return the IC50 using a data reduction tool within 3DX. […]

Assay [2] addresses T2, CYP2C19 (Homo sapiens, UniProt P33261).
T2 construct: Frozen human liver microsomes (HLM) were thawed at 37° C; from tissue; host or cells: human liver microsomes
The settings on record: HLM 0.2 mg/ml, 10 mins; read-out: Calculated IC50, HLM 2C19.
From the text: as §1, §2, §3, §4, §5, §6, §7, §8, §9

Assay [3] has as its target T3, CYP2C8 (Homo sapiens, UniProt P10632).
T3 construct: Frozen human liver microsomes (HLM) were thawed at 37° C; from tissue; host or cells: human liver microsomes
T3 sequence (P10632 1-490): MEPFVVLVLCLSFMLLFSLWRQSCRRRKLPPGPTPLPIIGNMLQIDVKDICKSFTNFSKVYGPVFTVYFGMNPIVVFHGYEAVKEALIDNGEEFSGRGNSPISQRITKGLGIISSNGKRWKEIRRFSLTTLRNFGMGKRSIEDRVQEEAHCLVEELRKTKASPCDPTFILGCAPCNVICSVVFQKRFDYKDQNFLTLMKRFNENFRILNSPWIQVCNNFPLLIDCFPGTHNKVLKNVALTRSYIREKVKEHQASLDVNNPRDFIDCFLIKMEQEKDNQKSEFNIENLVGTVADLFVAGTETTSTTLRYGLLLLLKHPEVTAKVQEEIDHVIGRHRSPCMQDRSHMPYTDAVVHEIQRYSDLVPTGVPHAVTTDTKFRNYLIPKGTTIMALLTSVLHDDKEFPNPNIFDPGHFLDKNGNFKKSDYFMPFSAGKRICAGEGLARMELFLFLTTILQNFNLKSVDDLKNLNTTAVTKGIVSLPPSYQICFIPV
The settings on record: HLM 0.2 mg/ml, 10 mins; read-out: Calculated IC50, HLM 2C8.
From the text: as §1, §2, §3, §4, §5, §6, §7, §8, §9

For assay [4], the target named is T4, CYP2C9 (Homo sapiens, UniProt P11712).
T4 construct: Frozen human liver microsomes (HLM) were thawed at 37° C; from tissue; host or cells: human liver microsomes
The settings on record: HLM 0.2 mg/ml, 10 mins; read-out: Calculated IC50, HLM 2C9.
From the text: as §1, §2, §3, §4, §5, §6, §7, §8, §9

Assay [5] concerns the target T5, CYP2D6 (Homo sapiens, UniProt P10635).
T5 construct: Frozen human liver microsomes (HLM) were thawed at 37° C; from tissue; host or cells: human liver microsomes
The settings on record: HLM 0.2 mg/ml, 10 mins; read-out: Calculated IC50, HLM 2D6.
From the text: as §1, §2, §3, §4, §5, §6, §7, §8, §9

For assay [6], the target named is T6, CYP3A4 (Homo sapiens, UniProt P08684).
T6 construct: Frozen human liver microsomes (HLM) were thawed at 37° C; from tissue; host or cells: human liver microsomes
The settings on record: HLM 0.2 mg/ml, 10 mins; read-out: Calculated IC50, HLM 3A4.
From the text: as §1, §2, §3, §4, §5, §6, §7, §8, §9

Structures are written as SMILES.

A word on the IC50: it is the concentration that inhibits the measured activity by half.

T6 sequence (P08684 whole entry): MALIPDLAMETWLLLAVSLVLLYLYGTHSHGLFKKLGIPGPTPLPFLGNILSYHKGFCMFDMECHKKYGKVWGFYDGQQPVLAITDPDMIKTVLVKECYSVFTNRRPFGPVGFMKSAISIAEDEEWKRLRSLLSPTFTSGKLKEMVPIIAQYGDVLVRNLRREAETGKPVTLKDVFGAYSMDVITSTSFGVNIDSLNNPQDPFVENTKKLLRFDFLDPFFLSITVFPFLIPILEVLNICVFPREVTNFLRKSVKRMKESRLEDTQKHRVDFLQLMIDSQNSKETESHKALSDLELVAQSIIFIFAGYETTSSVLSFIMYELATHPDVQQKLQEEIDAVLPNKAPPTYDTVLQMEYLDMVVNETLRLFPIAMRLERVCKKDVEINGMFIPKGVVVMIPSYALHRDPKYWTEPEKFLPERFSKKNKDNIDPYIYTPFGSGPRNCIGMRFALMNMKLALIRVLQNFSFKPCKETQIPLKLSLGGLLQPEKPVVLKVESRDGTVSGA
T4 sequence (P11712 whole entry): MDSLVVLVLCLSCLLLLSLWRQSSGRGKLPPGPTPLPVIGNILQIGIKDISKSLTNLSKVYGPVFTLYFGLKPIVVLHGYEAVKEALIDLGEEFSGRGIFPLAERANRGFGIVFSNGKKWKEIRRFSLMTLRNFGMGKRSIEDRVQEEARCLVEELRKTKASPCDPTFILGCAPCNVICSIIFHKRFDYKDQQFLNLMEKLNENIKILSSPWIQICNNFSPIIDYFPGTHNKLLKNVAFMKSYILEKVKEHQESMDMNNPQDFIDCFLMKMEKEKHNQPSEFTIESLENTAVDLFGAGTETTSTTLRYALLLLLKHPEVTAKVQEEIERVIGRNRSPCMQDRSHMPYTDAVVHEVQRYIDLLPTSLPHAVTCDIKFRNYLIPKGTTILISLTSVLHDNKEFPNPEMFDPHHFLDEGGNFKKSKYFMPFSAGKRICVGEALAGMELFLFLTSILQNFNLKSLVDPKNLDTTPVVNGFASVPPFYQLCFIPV
T5 sequence (P10635 whole entry): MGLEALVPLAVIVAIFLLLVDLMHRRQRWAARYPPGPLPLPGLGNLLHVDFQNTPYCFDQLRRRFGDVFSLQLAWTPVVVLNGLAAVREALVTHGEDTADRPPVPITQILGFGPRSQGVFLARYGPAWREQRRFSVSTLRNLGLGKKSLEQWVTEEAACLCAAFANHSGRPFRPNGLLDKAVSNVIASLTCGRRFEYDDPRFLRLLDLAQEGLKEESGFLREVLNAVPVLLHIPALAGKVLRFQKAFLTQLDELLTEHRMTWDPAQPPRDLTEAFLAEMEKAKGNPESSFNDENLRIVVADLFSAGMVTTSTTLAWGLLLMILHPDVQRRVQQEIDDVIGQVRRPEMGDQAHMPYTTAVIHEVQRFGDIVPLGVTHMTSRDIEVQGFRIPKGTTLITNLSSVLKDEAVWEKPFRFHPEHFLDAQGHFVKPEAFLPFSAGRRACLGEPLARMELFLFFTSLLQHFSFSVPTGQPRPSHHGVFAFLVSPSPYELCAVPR
T2 sequence (P33261 whole entry): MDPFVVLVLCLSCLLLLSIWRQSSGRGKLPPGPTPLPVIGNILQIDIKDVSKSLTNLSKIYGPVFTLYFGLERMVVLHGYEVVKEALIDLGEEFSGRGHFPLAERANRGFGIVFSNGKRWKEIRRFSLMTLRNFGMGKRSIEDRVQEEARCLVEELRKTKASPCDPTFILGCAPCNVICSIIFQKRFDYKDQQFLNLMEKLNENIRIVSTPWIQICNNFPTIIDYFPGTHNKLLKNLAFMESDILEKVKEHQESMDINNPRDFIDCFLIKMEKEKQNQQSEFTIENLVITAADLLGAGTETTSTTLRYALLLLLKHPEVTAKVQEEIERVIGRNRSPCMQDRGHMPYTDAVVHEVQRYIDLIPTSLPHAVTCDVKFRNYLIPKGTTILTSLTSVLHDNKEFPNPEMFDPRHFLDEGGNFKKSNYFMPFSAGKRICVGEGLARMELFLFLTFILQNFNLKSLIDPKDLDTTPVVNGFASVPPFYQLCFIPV

Take `O=C1C=C(c2c(-n3cnnn3)ccc(Cl)c2F)C[C@H]2CC[C@@H](c3ncc(-c4ccnc(CO)c4F)[nH]3)N12` [Compound of formula (I-A), (3S,8aR)-7-(3-Chloro-2-fluoro-6-(1H-tetrazol-1-yl)phenyl)-3-(5-(3-fluoro-2-(hydroxymethyl)pyridin-4-yl)-1H-imidazol-2-yl)-2,3,8,8a-tetrahydroindolizin-5(1H)-one]: the IC50 in assay [1] is above 20 µM; in assay [2], above 20 µM; in assay [3], above 20 µM; in assay [4], above 20 µM; in assay [5], above 20 µM; in assay [6], 14.4 µM.

(Values after patent publication US12545677B2, “Compounds useful as factor XIa inhibitors” (JANSSEN PHARMACEUTICA NV, priority 2020, dated 2026).)
